Results as given in patent US9963474B2, “Mitochondria-targeted dicarbonyl sequestering compounds” (MEDICAL RESEARCH COUNCIL, priority 2013, dated 2018).

Tests used:
C2C12 cells = experiment: Cell survival, MTS assay, C2C12; format: cell-based, mouse; conditions: C2C12, 24 h
Protocol: (A, B) RLM respiring on glutamate/malate at 37° C. were incubated with various concentrations of MitoG for 7 min in an oxygen electrode to measure coupled respiration (A) before ADP was added to measure phosphorylating respiration (B). Data are the percentage of the respiration rates of untreated controls (dashed lines). (C and D) C2C12 cells (C) or BAECs [Bovine Aortic Endothelial Cells; Cell Applications Inc, San Diego, Calif.] (D) were incubated with MitoG for 24 h and cell survival was then determined using the MTS assay. Data are expressed as a percentage of the untreated controls (dashed line). (E-H) BAECs were incubated with MitoG for 2 h at 37° C. and the cellular oxygen consumption rate (OCR) after the sequential additions of oligomycin, FCCP and antimycin A/rotenone were then measured using a Seahorse XF24 analyser. (E) OCR due to ATP synthesis, (F) OCR due to proton leak, (G) reserve capacity and (H) non-mitochondrial oxygen consumption. Results are means±S.E. of three independent experiments. *, P<0.05 or **, P<0.01 relative to untreated controls.
To assess cell viability, C2C12 cells or BAECs were seeded at a density of 10,000 cells/well and 40,000 cells/well, respectively, in 96-well plates. […] After 2 h absorbance was read at 490 nm in a plate reader (SpectraMax Plus 384, Molecular Devices). […]

[1] = Reaction with reactive aldehydes followed by RP-HPLC; conditions: RP-HPLC analysis, data not shown
Description: MitoG reacted with methylglyoxal and glyoxal to form products with identical absorption, fluorescence and RP-HPLC properties (FIGS. 3E, F, G & H) to those of independently synthesized and characterized MQE or QE (FIGS. 3B, C & D). […] Thus the reaction of MitoG with these aldehydes is not diagnostically useful, in contrast to that with 1,2-dicarbonyls, which generates stable, dominant products.

BAECs = experiment: Protection against dicarbonyl-induced cell death, BAECs, MTS assay; format: cell-based, bovine; conditions: pre-treated 1 h, overnight
Protocol: Isolated RLM respiring on glutamate/malate were incubated with MitoG, methoxyphenylenediamine (MP) or butylTPP for 2 min, followed by 0.5 mM methylglyoxal or 5 mM glyoxal for 5 min. ADP was then added and the rate of oxygen consumption monitored at 37° C. (see FIGS. 12A & 12B). C2C12 cells were pre-treated with MitoG, methoxyphenylenediamine (MP) or butylTPP for 1 h before exposure to 1 mM methylglyoxal or 5 mM glyoxal (see FIGS. 12C & 12D). Following an overnight incubation, cell survival was determined using the MTS assay. Similar experiments were conducted in BAECs pre-treated with MitoG, MP or butylTPP. For all experiments, concentrations of methylglyoxal and glyoxal used were chosen based on results from studies conducted prior to the protection assays. In these prior studies, RLM or cells were exposed to a range of dicarbonyl concentrations, and the phosphorylating rates of respiration or cell survival were evaluated. The results of these earlier experiments are shown in insets, and dicarbonyl concentrations that had caused significant respiratory depression or cell death were chosen for use in the protection assays. Data for all groups were normalized against untreated controls. For RLM, the rate of respiration by untreated controls was taken to be 100%; for cells, cell survival of untreated controls was taken to be 100%. Results are expressed as mean±S.E. of three independent experiments. MitoG was protective against methylglyoxal-induced respiratory depression and both methylglyoxal- and glyoxal-induced cell death in C2C12 cells and BAECs. […] In FIG. 12 the symbols *, ** respectively indicate that P<0.05 or P<0.01 relative to dicarbonyl-only groups; and the symbols +, ++ respectively indicate that P<0.05 or P<0.01 relative to untreated controls.

SMILES: Nc1ccc(OCCCCCC[P+](c2ccccc2)(c2ccccc2)c2ccccc2)cc1N [MitoG, (6-(3,4-Diaminophenoxy)hexyl)triphenylphosphonium chloride]
- concentration above which cell viability decreased (C2C12 cells): above 10 μM
- reaction with HNE or acrolein [1]: did react, a number of products were formed some of which were unstable
- protection against glyoxal-induced cell death (BAECs): protective
- protection against methylglyoxal-induced cell death (BAECs): protective
